Tests used:
Ppargc1α mRNA = Ppargc1α mRNA expression in BV2 cells (rt-PCR); type: cell-based, murine; details: concentrations ranging from 0.7 μM to 20 μM, normalized to beta-actin mRNA
Source text: RNA was processed for real-time PCR.

TNFα = TNFα release by LPS-stimulated BV2 cells (ELISA); type: cell-based, murine; details: BV-2 cells, 10 μM, ELISA at 24 hours
Method: First, 100 μl of supernatant was removed from Cell Plate and transferred to a Dilution Plate, which was then centrifuged at 216×g for 10 minutes to remove particulates. The dilution plate was either assayed immediately or aliquots were taken and stored at stored at ≤−20° C.; repeated freeze-thaw cycles were avoided.
Next, a standard curve was prepared by first pipetting 900 ul of Calibrator Diluent RD5K into the 700 pg/mL tube, followed by 200 μl of the appropriate calibrator diluent in the remaining tubes. The stock solution was used to produce a dilution. The resulting tubes were then thoroughly mixed. The Mouse TNFα Standard (700 pg/mL) served as the high standard, and the Calibrator Diluent RD5T served as the zero standard at 0 pg/ml.
Assay Diluent RD1-63 (50 ul) was then added to the center of each well and mixed before and during its use. Then, 50 ul of either standard, control, or sample was added to the center of each well, and covered with adhesive strip. The plate was then mixed for 1 minute and incubated for 2 hours at room temperature.
Each well was then aspirated and washed by filling each well with Wash Buffer (400 ul) five times. After the last wash, the remaining Wash Buffer was removed by aspirating or decanting. TNFα […] conjugate (100 ul) was then added to each well, covered with adhesive strip, incubated for 2 hours at room temperature, and washed and/or aspirated five times.
Substrate solution (100 ul) was then added to each well, incubated in the dark for 30 minutes at room temperature, followed by addition of 100 μl of Stop Solution and mixed. The optical density of each well was determined within 30 minutes by using a microplate reader set to 450 nm.
Plates were read on a Spectrostar Nano machine with built-in MARS data analysis at […].
For TNFα ELISA, the BV-2 cells were very responsive to low concentrations of LPS. A concentration range of 0.1 ng/ml to 1,000 ng/ml was tested. 0.3 ng/ml LPS produced enough TNFα release (8-10 fold above background) from these cells after 22 hours stimulation without saturating the linear range of the ELISA detection system. If higher LPS concentrations are used for stimulating BV-2 cells, a […] is advised to stay within the linear range of the detection system. The current TNFα protocol uses 10,000 cells per well in 96 well plate. A cell count titration can optimize S/B ratio. Miniaturization from 96 well to 384 well is also feasible with this assay.
The TNFα ELISA assay is described in Example 5. The IL-6 assay is described below.

TNF-α = assay: LPS-induced TNF-α production of human PBMC (CBA assay); type: cell-based; details: 100 ng/ml LPS, 24 hours, compared to no treatment
Method: Peripheral blood mononuclear cells (PBMC) from 4 different healthy volunteers were used in this study. Fresh blood samples were collected at Stanford Blood Center and processed for PBMC isolation with Ficoll gradient. PBMC samples were stored in liquid nitrogen at […] for subsequent analysis of TNF-α production. For TNF-α stimulation, frozen PBMC samples were thawed and rested at 37° C. before cells were stimulated with 100 ng/ml of LPS for 24 hours. DMSO (1:1000 final dilution) or TQS-168 in DMSO (1:1000 final dilution) at various concentrations was added to cell cultures of LPS-stimulated PBMC to evaluate the effects of T-168 on TNF-α production of human primary myeloid cells. After 24 hours stimulation, supernatant samples from various conditions were collected and TNF-α concentrations in the supernatants analyzed with cytometric bead array (CBA) assay per protocols from BD Biosciences. TNF-α was quantified by median fluorescent intensity reading (MFI). Samples were analyzed directly after staining with LSRII flow cytometer.

[1] = system: 12 human primary cell-based systems; assay: Eurofins BioMAP Diversity PLUS panel
Source text: TQS-168 was characterized in the Eurofins BioMAP Diversity PLUS panel of 12 human primary cell-based systems (FIG. 12). These systems are designed to model complex human tissue and disease biology of the vasculature, skin (fibrosis), pulmonary and immune systems and provide test agent characterization in an unbiased way across a broad set of systems modeling various human disease states. Quantitative measurements of biomarker activities across this broad panel, along with comparative analysis of the biological activities of known bioactive agents in the BioMAP reference database were used to predict the safety, efficacy and function of TQS-168. A BioMAP profile in the Diversity PLUS Panel was performed for TQS-168 at concentrations of 20 μM, 6.7 μM, 2.2 μM, and 740 nM. The Y-axis represents a log-transformed ratio of the biomarker readouts for the test agent-treated sample (n=1) over vehicle controls (average of ≥6 vehicle controls from the same plate). The grey region around the Y-axis represents the 95% significance envelope that was generated from the upper and lower bound values of historical vehicle controls. Biomarker activities were annotated when two or more consecutive concentrations change in the same direction relative to vehicle controls, were outside of the significance envelope, and have at least one concentration with an effect size >20% (|log10 ratio|>0.1). Biomarker key activities were described as modulated if these activities increase in some systems, but decreased in others.

IL-6 = assay: Spontaneous IL-6 release of PBMCs from an ALS patient (ELISA); type: cell-based, human; details: 1 μM, 24 hours, no LPS, versus medium only
Method: PBMCs from an ALS patient were used for this study. Whole blood samples were collected from the patient and processed for PBMC isolation with Ficoll gradient method. PBMC samples were stored in liquid nitrogen at […] for subsequent analysis of IL-6 production.
Frozen PBMC samples were thawed and rested at 37° C. […] Therefore PBMC stimulation by LPS was not required to evaluate the effects of TQS-168 and metabolite TQS-621 on IL-6 production. PBMC samples (5×10^5 cells per well) were incubated with medium only, TQS-168 (1 μM) or TQS-621 (1 μM). After 24 hours, supernatants were collected for quantification of IL-6 levels by ELISA.

sepsis = assay: Mouse model of sepsis / hyperinflammation (virus followed by LPS, as described in Wang); details: mice, intravenous, various doses
Method: Briefly, mice are anesthetized with a ketamine/xylazine mixture. A virus, such as a coronavirus, influenza virus, rhinovirus, respiratory syncytial virus, metapneumovirus, adenovirus, or a boca virus, is administered. The virus may be administered intranasally dropwise.
Next, LPS diluted in a buffer, such as PBS, is injected intraperitoneally at specific doses.
To provide comparators for assessing the effects of TQS-168 and its analogs, groups of positive control mice are treated with one or more antibodies against pro-inflammatory cytokines of interest: anti-NK1.1 antibody (PK136; Bio X Cell) diluted in PBS is injected at 100 μg per injection (100 μL) retro-orbitally concurrently with each challenge; anti-IFNγ antibody (XMG1.2, Bio X Cell) is diluted in PBS and injected at 500 μg per injection (100 μL) retro-orbitally concurrently with each challenge; anti-IL6R (15A7.10 mg/kg; Bio X Cell), anti-TNFα (XT3.11, 500 μg per injection; Bio X Cell), anti-IFNαR (MAR1-5A3, 10 mg/kg; Bio X Cell), and anti-IL1β (B122, 500 μg per injection; Bio X Cell) are injected retro-orbitally. For a negative control, isotype antibody is injected retro-orbitally.
The pro-inflammatory cytokines can be measured using the ELISA assay described in Example 1.

[2] = profile at 20 μM, 6.7 μM, 2.2 μM, 740 nM

What does the source list for `CC(C)(C)c1ccc(-c2nc3ccccc3[nH]2)cc1` [TQS-168, 2-(4-tert-butylphenyl)-1H-benzimidazole]?
Ppargc1α mRNA expression (Ppargc1α mRNA): induces; suppression of TNFα production (TNFα; 0.3 ng/ml LPS): about 25%; inhibition at 10 µM (TNFα; Mus musculus, 1 ng/ml LPS, read-out: inhibition of TNFα production): ~35%; suppression of TNFα production (TNF-α; 5 μM): statistically significant suppression; suppression of TNFα production (TNF-α; 20 μM): statistically significant suppression; T-cell proliferation, IgG, TNFα, and IL-8 ([1]; 6.7 μM): inhibit; decrease in sIgG and sTNFα in B and T cells as compared to metformin hydrochloride at 5000 μM ([1]; 6.7 μM): greater decrease; decrease in sIgG, sIL-17A, sIL-17F, sIL-2, sTNFα, sIL-6 from B and T cells ([1]; 20 μM, highest concentration of the profile): greatest decrease; inflammatory markers Eotaxin-3, P-selectin, IL-8, PGE2, IP-10 [1, 2]: decreased; proliferation of endothelial, B cells, T cells, coronary artery SMC & fibroblasts [1, 2]: anti-proliferative; tissue remodeling markers uPAR, MMP1, tPA, alpha-SMA, Collagen III [1, 2]: modulated; spontaneous release of IL-6 (amount of IL-6 produced) (IL-6): reduction; circulating concentrations of pro-inflammatory cytokines (sepsis): effective in reducing; hyperinflammatory symptoms (sepsis): effective in reducing
